According to US4782159A, “Process for preparing beta-methyl-gamma-oxo-4-(4-oxo-1(4H)-pyridinyl) derivative of benzene butanoic acid” (Smith Kline & French Laboratories Limited, priority 1986, dated 1988):
“Also recorded” adds a separate entry of the source. Values belong to the compound of their own block, whether it stands above or below them.

Experiments:
[1] = biological target: T1, PDE (Peak III) (Felis catus, UniProt A0ABI7YEY2); assay: Inhibition of Phosphodiesterases, PDE (Peak III)
T1 sequence (A0ABI7YEY2 1-1144): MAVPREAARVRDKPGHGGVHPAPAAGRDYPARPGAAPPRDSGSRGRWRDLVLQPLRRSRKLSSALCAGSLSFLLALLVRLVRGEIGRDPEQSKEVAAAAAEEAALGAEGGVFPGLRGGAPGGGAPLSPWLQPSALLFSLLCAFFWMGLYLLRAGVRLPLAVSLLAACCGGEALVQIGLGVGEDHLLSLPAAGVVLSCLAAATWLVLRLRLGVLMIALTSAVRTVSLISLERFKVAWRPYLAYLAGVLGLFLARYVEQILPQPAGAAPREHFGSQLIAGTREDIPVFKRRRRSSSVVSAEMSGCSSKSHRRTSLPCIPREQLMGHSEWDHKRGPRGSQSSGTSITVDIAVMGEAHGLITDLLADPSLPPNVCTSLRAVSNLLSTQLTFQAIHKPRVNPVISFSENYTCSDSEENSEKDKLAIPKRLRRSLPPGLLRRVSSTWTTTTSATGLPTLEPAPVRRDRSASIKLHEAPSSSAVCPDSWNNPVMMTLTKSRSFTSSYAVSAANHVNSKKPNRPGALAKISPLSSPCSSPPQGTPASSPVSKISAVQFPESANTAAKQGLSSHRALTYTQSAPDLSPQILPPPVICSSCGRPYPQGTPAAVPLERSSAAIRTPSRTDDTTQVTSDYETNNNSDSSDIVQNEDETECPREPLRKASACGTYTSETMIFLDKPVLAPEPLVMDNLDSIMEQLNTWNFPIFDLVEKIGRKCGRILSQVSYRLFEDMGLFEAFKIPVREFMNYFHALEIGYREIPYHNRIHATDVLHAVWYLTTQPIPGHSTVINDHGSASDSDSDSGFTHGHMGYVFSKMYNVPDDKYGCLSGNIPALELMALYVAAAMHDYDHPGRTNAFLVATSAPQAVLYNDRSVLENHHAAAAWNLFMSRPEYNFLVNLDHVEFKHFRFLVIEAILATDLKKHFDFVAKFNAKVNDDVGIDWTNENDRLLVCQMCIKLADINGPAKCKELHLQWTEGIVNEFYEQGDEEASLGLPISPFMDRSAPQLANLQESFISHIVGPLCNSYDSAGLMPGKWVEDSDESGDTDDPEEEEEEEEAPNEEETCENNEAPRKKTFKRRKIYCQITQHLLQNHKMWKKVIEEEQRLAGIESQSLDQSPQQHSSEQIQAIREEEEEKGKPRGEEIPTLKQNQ
Description: (§2) The enzyme was assayed by incubation at 37° for 4-30 min in 50 mM Tris, 5 mM MgCl2, pH 7.5 with [3-H] cyclic nucleotide (4×10^5 disintegrations min^-1) and [14-C] nucleotide 5' monophosphate (3×10^3 disintegrations min^-1). The assay was stopped by boiling, and the [3-H] […] The reaction mixture was diluted with 0.5 ml 100 mM HEPES (N-2-Hydroxyethylpiperazine-N'-2-ethanesulfonic acid), 100 mM NaCl, pH 8.5, and applied to the column. […] The recovery of product as judged by [14-C] recovery was approximately 80%. All assays were linear with time of incubation and concentration of enzyme over the range used in these experiments.

[2] = biological target: T2, PDE (Peak II) (Felis catus, UniProt A0ABI7ZLD2); assay: Inhibition of Phosphodiesterases, PDE (Peak II); format: biochemical, cat
T2 construct: DEAE-Sepharose CL-6B Peak II of cat heart high-speed supernatant
T2 sequence (A0ABI7ZLD2 1-921): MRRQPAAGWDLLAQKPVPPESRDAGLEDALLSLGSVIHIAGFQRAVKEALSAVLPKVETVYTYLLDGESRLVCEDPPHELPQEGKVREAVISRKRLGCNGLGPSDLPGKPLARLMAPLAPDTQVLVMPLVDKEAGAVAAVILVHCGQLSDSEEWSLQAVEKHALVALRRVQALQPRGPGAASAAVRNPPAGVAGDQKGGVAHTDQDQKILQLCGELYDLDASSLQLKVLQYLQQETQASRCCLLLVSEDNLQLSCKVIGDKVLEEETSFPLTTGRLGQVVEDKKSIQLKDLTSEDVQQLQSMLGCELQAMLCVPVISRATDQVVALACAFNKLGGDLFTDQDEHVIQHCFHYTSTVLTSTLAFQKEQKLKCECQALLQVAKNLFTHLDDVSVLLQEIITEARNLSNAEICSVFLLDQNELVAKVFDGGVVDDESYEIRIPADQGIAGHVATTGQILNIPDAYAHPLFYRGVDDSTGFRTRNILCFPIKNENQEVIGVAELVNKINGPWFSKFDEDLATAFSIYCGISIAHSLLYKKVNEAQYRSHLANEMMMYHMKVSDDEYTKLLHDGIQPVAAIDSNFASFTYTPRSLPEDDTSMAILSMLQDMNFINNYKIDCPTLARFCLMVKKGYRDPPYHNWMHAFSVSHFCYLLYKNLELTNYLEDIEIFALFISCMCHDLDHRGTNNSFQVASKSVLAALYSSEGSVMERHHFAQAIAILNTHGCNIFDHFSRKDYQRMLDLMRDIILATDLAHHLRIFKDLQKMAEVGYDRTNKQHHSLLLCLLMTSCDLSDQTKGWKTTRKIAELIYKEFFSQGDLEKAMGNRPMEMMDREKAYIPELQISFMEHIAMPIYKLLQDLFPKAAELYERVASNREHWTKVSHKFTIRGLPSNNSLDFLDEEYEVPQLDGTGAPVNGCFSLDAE
Text: (§1) This specificity is an indication that the compound is likely to have a force/rate selectivity in its cardiac stimulant activity with a low potential for inducing arrythmias.

[3] = test system: histamine-induced bronchoconstriction; assay: Bronchodilatation--In vivo (histamine-induced bronchoconstriction); design: species or system guinea-pig, Dunkin Hartley strain; conditions: i.v., one minute before histamine challenge
Description: Male guinea-pigs of the Dunkin Hartley strain (530 g±6 g) were anaesthetised with Sagatal (pentobarbital sodium) (90 mg/kg i.p.). Airway resistance was measured using a modification of the classical Konzett-Rossler technique (Versuchsanordnung zu Untersuchungen an der Bronchialmuskulatur. Naunyn-Schmiedebergs Arch. Exp. Path. Pharmak., 195: pp 71-74, (1940)). A dose of histamine which gave approximately 150% increase in airway resistance was selected for i.v. administration. Bolus doses of the compound of formula (2) was administered (i.v.) one minute before the histamine challenge.

[4] = test system: left ventricular dp/dt max; assay: Cardiac Stimulant Activity--In vivo (Conscious Dogs); design: species or system dog
Description: The compound of formula (2) increased left ventricular dp/dt max in conscious dogs after intravenous administration at doses below 0.02 mg/kg. Oral administration caused positive inotropic responses at doses of 0.05 mg/kg and below.

[5] = test system: platelet aggregation induced by the endoperoxide mimetic U44069; assay: Platelet Aggregation Inhibition--In vitro; format: cell-based; conditions: U44069 (10 μM), aspirin-treated (100 μM) human platelet rich plasma
Description: Platelet rich plasma (PRP) was prepared from whole human blood anti-coagulated with 1/10 volume acid citrate dextrose. The citrated blood was centrifuged at 700 g for 5 minutes and the PRP removed. The remaining red cells and plasma were centrifuged for a further 15 minutes at 900 g and the platelet poor plasma removed. This was then mixed with the PRP to give a final platelet count of 2-3×10^8 cells/ml.
PRP was divided into 0.5 ml aliquots which were preincubated for 2 minutes to 37° C. before being placed in the sample chamber of an HG aggregometer connected to a Teckman chart recorder.
Aspirin was added to a concentration of 100 μM.
Aggregation to the endoperoxide mimetic U44069 (9,11-epoxymethano-PGH2) was then examined in the absence and presence of a range of concentrations of the compound of formula (2).

[6] = test system: left ventricular dp/dt max (index of left ventricular contractility); assay: Cardiac Stimulant Activity--In vivo (Anaesthetised Cats); design: species or system cat; conditions: intravenous
Text: In anaesthetised cats pretreated with a ganglion blocker (mecamylamine or pempidine) and propranolol, the compound of formula (2) causes increases in left ventricular dp/dt max (this is an index of left ventricular contractility) when administered intravenously.

[7] = test system: PDE (Peak I); assay: Inhibition of Phosphodiesterases, PDE (Peak I); format: biochemical, cat; conditions: at up to 10^-4 M
Text: as §1

[8] = biological target: T2, PDE (Peak II); assay: Substrate kinetics of PDE (Peak II) from cat heart; format: biochemical
Description: as §2

[9] = biological target: T1, PDE (Peak III); assay: Substrate kinetics of PDE (Peak III) from cat heart; format: biochemical; design: DEAE-Sepharose Peak III from high-speed supernatant of cat heart homogenate
Description: as §2

[10] = test system: PDE (Peak I); assay: Substrate kinetics of PDE (Peak I) from cat heart; format: biochemical; conditions: for Relative Vmax: PDE (Peak I)

- inhibition of PDE (Peak II) [2]: either no or weak inhibition
- IC50 [5]: 0.08 ± 0.01 µM
Compound: CC1CC(=O)NN=C1c1ccc(-n2ccc(=O)cc2)cc1 (centres unmarked) [formula (2)]
- selectivity for PDE (Peak III) / phosphodiesterase type III ([1]; versus PDE (Peak I) and PDE (Peak II)): selective phosphodiesterase type III inhibitor; also recorded: selective PDE (Peak III) inhibitor
- ED50 ([3]; Cavia porcellus, iv, read-out: ED50 (dose which reduced the histamine bronchoconstriction by 50%)): 1.8 µmol/kg
- minimal effective dose ([3]; Cavia porcellus, read-out: threshold dose): 0.01 µmol/kg
- effect on histamine-induced bronchoconstriction [3]: reduced the histamine-induced bronchoconstriction
- changes in blood pressure or heart rate [4]: without changes
- force-rate selectivity [4]: particularly beneficial
- ED50 ([6]; Felis catus, read-out: ED50 (dose to increase left ventricular dp/dt max by 50%), anaesthetised cats pretreated with ganglion blocker and propranolol): 0.04 µmol/kg
- changes in blood pressure or heart rate ([6]; anaesthetised cats): Minimal changes
- inhibition of PDE (Peak I) [7]: no inhibition

Compound: Nc1cc(-c2ccncc2)c[nH]c1=O [Amrinone, reference compound]
- IC50 ([1]; PDE (Peak III), 1 μM cyclic AMP): 51.8 µM
- activity in comparison with the compound of formula (2) [4]: less active
- duration in comparison with the compound of formula (2) [4]: shorter duration

- Relative Vmax ([8]; PDE (Peak II)): 0.2
- affinity of PDE (Peak II) for substrate ([8]; in words): relatively low affinities
- Relative Vmax [9]: 0.4
Compound: Nc1nc2c(ncn2[C@@H]2O[C@@H]3COP(=O)(O)O[C@H]3[C@H]2O)c(=O)[nH]1 [cyclic GMP]
- Relative Vmax ([10]; 50 μg/ml calmodulin added): 7.2
- Relative Vmax ([10]; without calmodulin): 1.1
- affinity of PDE (Peak I) for substrate ([10]; in words): high affinity
